# Patent USRE47689E1, “Compounds for treating spinal muscular atrophy” (PTC Therapeutics, Inc., priority 2011, dated 2019)
# Key:
# [1] = system: SMN2 minigene (full length SMN2 minigene mRNA containing SMN2 exon 7); experiment: SMN2 minigene mRNA splicing RT-qPCR assay in cultured cells; format: cell-based, human; settings: Homo sapiens, HEK293-H; HEK293H cells stably transfected with SMN2-A minigene; 24 hours; 7-point concentration curve; 1.5-fold relative to vehicle-treated cells; read-out: EC1.5x for production of full length SMN2 mRNA
# Method in brief: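 Full-length SMN2 minigene mRNA (exon 7 included), minigene-specific and not endogenous SMN, quantified by RT-qPCR multiplexed with GAPDH in stably transfected HEK293H cells after 24 h compound exposure at 37° C. Abundance from efficiency-corrected Ct, normalized to GAPDH and vehicle; EC1.5x reported as star bins.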
# [2] = system: Smn protein; experiment: Smn protein assay in cultured cells (SMN HTRF); format: cell-based, human; settings: 48 hours; for maximum fold (Fold) increase of Smn protein: SMA patient fibroblast cells, 7-point concentration data, fold increase relative to vehicle control (SMN HTRF); for EC1.5x (concentration giving 1.5-fold Smn protein increase): SMA Type 1 patient fibroblast cells (GM03813), 7-point concentration curve, SMN HTRF, concentration producing 1.5 times Smn protein vs DMSO vehicle control, read-out: EC1.5x for Smn protein expression
# Method in brief: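 Smn in SMA fibroblast lysates, measured by anti-SMN HTRF after 48 h compound exposure; EC1.5x from fold change over vehicle.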
Structure (SMILES),melting point [°C],EC (1.5-fold) [1] [µM],maximum fold (Fold) increase of Smn protein [2],EC1.5x (concentration giving 1.5-fold Smn protein increase) [2] [nM]
"CCN1CCC[C@H]2CN(c3ccc4cc(-c5cn6cc(C)nc(C)c6n5)c(=O)oc4c3)C[C@H]21 [Compound 803, 3-(6,8-dimethylimidazo[1,2-a]pyrazin-2-yl)-7-[(4aS,7aS)-1-ethyloctahydro-6H-pyrrolo[3,4-b]pyridin-6-yl]-2H-chromen-2-one]",217 to 221,< 0.1,*** (fold increase between >1.35 and ≤1.5),–
"CCC1CN(c2ccc3cc(-c4cn5cc(C)nc(C)c5n4)c(=O)oc3c2)CCN1 (centres unmarked) [Compound 665, 3-(6,8-dimethylimidazo[1,2-a]pyrazin-2-yl)-7-(3-ethylpiperazin-1-yl)-2H-chromen-2-one]",211 to 215,< 0.1,***** (fold increase >1.65),< 300
"CN1CCN(c2ccc3cc(-c4cn5cc(F)cnc5n4)c(=O)oc3c2)CC1 [Cpd 480, 3-(6-fluoroimidazo[1,2-a]pyrimidin-2-yl)-7-(4-methylpiperazin-1-yl)-2H-chromen-2-one]",275 to 280,3 to 30,* (maximum fold increase of ≤1.2),–
"C[C@@H]1CN(c2cc(F)c3cc(-c4cn5cccc(Cl)c5n4)c(=O)oc3c2)CCN1 [Compound 390, 3-(8-chloroimidazo[1,2-a]pyridin-2-yl)-5-fluoro-7-[(3R)-3-methylpiperazin-1-yl]-2H-chromen-2-one]",266 to 276,0.1 to 0.3,*** (fold increase between >1.35 and ≤1.5),–
"Cc1cn2cc(-c3cc4ccc(N5C[C@@H](O)[C@H](N(C)C)C5)cc4oc3=O)cc2c(C)n1 [Compound 734, 7-[(3R,4R)-3-(dimethylamino)-4-hydroxypyrrolidin-1-yl]-3-(1,3-dimethylpyrrolo[1,2-a]pyrazin-7-yl)-2H-chromen-2-one]",173 to 176,< 0.1,**** (fold increase between >1.5 and ≤1.65),< 300
"CCCN1CCN(c2ccc3cc(-c4cc5cc(C)nc(C)c5o4)c(=O)oc3c2)CC1 [Compound 815, 3-(5,7-dimethylfuro[2,3-c]pyridin-2-yl)-7-(4-propylpiperazin-1-yl)-2H-chromen-2-one]",259 to 262,< 0.1,**** (fold increase between >1.5 and ≤1.65),< 300
"CN1CCN(c2ccc3cc(-c4cn5cc(F)cc(F)c5n4)c(=O)oc3c2)CC1 [Compound 522, 3-(6,8-difluoroimidazo[1,2-a]pyridin-2-yl)-7-(4-methylpiperazin-1-yl)-2H-chromen-2-one]",232 to 238,0.3 to 1,* (maximum fold increase of ≤1.2),–
"CNCCCc1ccc2cc(-c3cc(F)c4nc(C)cn4c3)c(=O)oc2c1 [Compound 913, 3-(8-fluoro-2-methylimidazo[1,2-a]pyridin-6-yl)-7-[3-(methylamino)propyl]-2H-chromen-2-one]",163 to 166,< 0.1,***** (fold increase >1.65),< 300
"COc1cccn2cc(-c3cc4ccc(N5C[C@@H](C)N[C@@H](C)C5)cc4oc3=O)nc12 [Compound 418, 7-[(3R,5 S)-3,5-dimethylpiperazin-1-yl]-3-(8-methoxyimidazo[1,2-a]pyridin-2-yl)-2H-chromen-2-one]",184 to 186,1 to 3,**** (fold increase between >1.5 and ≤1.65),300 to 1000
"Cc1c(-c2nc3ccccc3s2)c(=O)oc2cc(N3CCNCC3)ccc12 [Compound 147, 3-(1,3-benzothiazol-2-yl)-4-methyl-7-(piperazin-1-yl)-2H-chromen-2-one]",234 to 236,1 to 3,* (maximum fold increase of ≤1.2),–
"Cc1cc(Cl)c2nc(-c3cc4ccc(N5CCCN(C)CC5)cc4oc3=O)cn2c1 [Compound 344, 3-(8-chloro-6-methylimidazo[1,2-a]pyridin-2-yl)-7-(4-methyl-1,4-diazepan-1-yl)-2H-chromen-2-one]",224 to 230,0.3 to 1,** (fold increase between >1.2 and ≤1.35),–
"C[C@@H]1CN(c2ccc3cc(-c4cn5cnccc5n4)c(=O)oc3c2)C[C@H](C)N1 [Compound 459, 7-[(3R,5S)-3,5-dimethylpiperazin-1-yl]-3-(imidazo[1,2-c]pyrimidin-2-yl)-2H-chromen-2-one]",250 to 252,< 0.1,*** (fold increase between >1.35 and ≤1.5),3000 to 10000

# More lines, main results first:
melting point [°C],Structure (SMILES),EC (1.5-fold) [1] [µM],maximum fold (Fold) increase of Smn protein [2],EC1.5x (concentration giving 1.5-fold Smn protein increase) [2] [nM]
225 to 227,"Cc1ccc2nc(-c3cc4ccc(N5C[C@@H](C)N[C@@H](C)C5)cc4oc3=O)cn2n1 [Cpd 617, 7-[(3R,5S)-3,5-dimethylpiperazin-1-yl]-3-(6-methylimidazo[1,2-b]pyridazin-2-yl)-2H-chromen-2-one]",< 0.1,*** (fold increase between >1.35 and ≤1.5),–
235 to 238,"O=c1oc2cc(N3CCNCC3)ccc2cc1-c1cc2ncccn2c1 [Cpd 579, 7-(piperazin-1-yl)-3-(pyrrolo[1,2-a]pyrimidin-7-yl)-2H-chromen-2-one]",0.3 to 1,* (maximum fold increase of ≤1.2),–
278 to 283,"O=c1oc2cc(N3CCNCC3)cc(F)c2cc1-c1cn2ccsc2n1 [Compound 311, 5-fluoro-3-(imidazo[2,1-b][1,3]thiazol-6-yl)-7-(piperazin-1-yl)-2H-chromen-2-one]",< 0.1,*** (fold increase between >1.35 and ≤1.5),1000 to 3000
270 to 273,"C[C@@H]1CN(c2ccc3cc(-c4cn5cc(Cl)sc5n4)c(=O)oc3c2)C[C@H](C)N1 [Compound 473, 3-(2-chloroimidazo[2,1-b][1,3]thiazol-6-yl)-7-[(3R,5S)-3,5-dimethylpiperazin-1-yl]-2H-chromen-2-one]",0.1 to 0.3,** (fold increase between >1.2 and ≤1.35),–
231 to 241,"Cc1ccn2cc(-c3cc4ccc(N5CCN(C)[C@@H](C)C5)cc4oc3=O)nc2c1 [Compound 379, 7-[(3S)-3,4-dimethylpiperazin-1-yl]-3-(7-methylimidazo[1,2-a]pyridin-2-yl)-2H-chromen-2-one]",0.3 to 1,*** (fold increase between >1.35 and ≤1.5),–
252 to 262,"Cc1cn2cc(-c3cc4ccc(N5C[C@@H]6CCN(C)[C@@H]6C5)cc4oc3=O)nc2c(C)n1 [Compound 706, 3-(6,8-dimethylimidazo[1,2-a]pyrazin-2-yl)-7-[(3aS,6aS)-1-methylhexahydropyrrolo[3,4-b]pyrrol-5(1H)-yl]-2H-chromen-2-one]",< 0.1,**** (fold increase between >1.5 and ≤1.65),300 to 1000
258 to 262,"CCC1CN(c2ccc3cc(-c4cn5cc(C)nc(C)c5n4)c(=O)oc3c2)CCN1C (centres unmarked) [Compound 676, 3-(6,8-dimethylimidazo[1,2-a]pyrazin-2-yl)-7-(3-ethyl-4-methylpiperazin-1-yl)-2H-chromen-2-one]",< 0.1,***** (fold increase >1.65),< 300
147 to 150,"Cc1cn2cc(-c3cc4ccc(CCCNCC5CCCO5)cc4oc3=O)nc2c(C)n1 (centres unmarked) [Compound 932, 3-(6,8-dimethylimidazo[1,2-a]pyrazin-2-yl)-7-{3-[(tetrahydrofuran-2-ylmethyl)amino]propyl}-2H-chromen-2-one]",< 0.1,**** (fold increase between >1.5 and ≤1.65),< 300
> 310,"CN1CCN(c2ccc3cc(-c4cn5cccnc5n4)c(=O)oc3c2)CC1 [Compound 87, 3-(imidazo[1,2-a]pyrimidin-2-yl)-7-(4-methylpiperazin-1-yl)-2H-chromen-2-one]",0.3 to 1,**** (fold increase between >1.5 and ≤1.65),1000 to 3000
226 to 233,"Cc1cn2cc(-c3cc4ccc(N[C@@H]5CCN(C)C5)cc4oc3=O)nc2c(C)n1 [Compound 730, 3-(6,8-dimethylimidazo[1,2-a]pyrazin-2-yl)-7-{[(3R)-1-methylpyrrolidin-3-yl]amino}-2H-chromen-2-one]",< 0.1,*** (fold increase between >1.35 and ≤1.5),–
214 to 218,"CN(C)Cc1ccc2cc(-c3nc4ccccc4[nH]3)c(=O)oc2c1 [Compound 396, 3-(1H-benzimidazol-2-yl)-7-[(dimethylamino)methyl]-2H-chromen-2-one]",1 to 3,** (fold increase between >1.2 and ≤1.35),–
